{"source": "patent US20240408086A1", "about": "“USE OF LUVADAXISTAT FOR THE TREATMENT OF COGNITIVE IMPAIRMENT” (TAKEDA PHARMACEUTICAL COMPANY LIMITED, priority 2021, published 2024)", "test_system": "adult patients with persistent negative symptoms of schizophrenia", "format": "in vivo, human", "excerpt": "To assess changes in cognitive impairment associated with schizophrenia (CIAS), secondary endpoints included the 12-week change from baseline in the Brief Assessment of Cognition in Schizophrenia (BACS) composite score, a measure of cognition across multiple domains, and the Schizophrenia Cognition Rating Scale (SCORS) score, a measure of day-to-day cognitive functioning requiring input from an adult informant. Secondary endpoints were not corrected for multiplicity.\nThe BACS is specifically designed to measure treatment-related improvements in cognition and includes alternate forms. BACS is a reliable and sensitive measure of cognitive function in schizophrenia. The BACS is a cognition assessment battery that assesses 6 domains of cognitive function found to be consistently impaired in schizophrenia: verbal memory; working memory; motor speed; attention; executive functions; and verbal fluency. The primary measure from each test of the BACS is standardized by creating T-scores whereby the mean of the test session of a matched reference healthy participant is set to 50 and the standard deviation set to 10.", "key": {"[1]": {"conditions": "125 mg once daily, MMRM, preliminary analysis"}, "[2]": {"conditions": "125 mg once daily, preliminary analysis"}}}
{"molecule": "O=c1[nH]nc(CCc2ccc(C(F)(F)F)cc2)cc1O", "note": "[Compound (I), luvadaxistat]", "values": [{"measurement": "BACS Attention Cognition Domain, Difference from Placebo for Week 6, LS Mean (SE)", "setting": "50 mg, Week 6, MMRM", "value": "−0.1 (1.12)"}, {"measurement": "BACS Executive Functions Cognition Domain, Adjusted Change from Baseline to Week 6, LS Mean (SE)", "setting": "50 mg, Week 6, MMRM", "value": "0.9 (1.22)"}, {"measurement": "BACS Executive Functions Cognition Domain, Difference from Placebo for Week 6, LS Mean (SE)", "setting": "50 mg, Week 6, MMRM", "value": "2.1 (1.53)"}, {"measurement": "BACS Verbal Fluency Cognition Domain, Adjusted Change from Baseline to Week 6, LS Mean (SE)", "setting": "50 mg, Week 6, MMRM", "value": "−0.3 (0.70)"}, {"measurement": "BACS Verbal Fluency Cognition Domain, Difference from Placebo for Week 6, LS Mean (SE)", "setting": "50 mg, Week 6, MMRM", "value": "−0.5 (0.87)"}, {"measurement": "BACS Attention Cognition Domain, Change from Baseline to Week 12, Mean (SD)", "setting": "50 mg, Week 12", "value": "2.2 (6.95)"}, {"measurement": "BACS Attention Cognition Domain, Change from Baseline to Week 12, Median", "setting": "50 mg, Week 12", "value": 2.0}, {"measurement": "BACS Attention Cognition Domain, Week 12, Mean (SD)", "setting": "50 mg, Week 12", "value": "38.0 (11.83)"}, {"measurement": "BACS Attention Cognition Domain, Week 12, Median", "setting": "50 mg, Week 12", "value": 39.0}, {"measurement": "BACS Executive Functions Cognition Domain, Change from Baseline to Week 12, Mean (SD)", "setting": "50 mg, Week 12", "value": "2.6 (7.73)"}, {"measurement": "BACS Executive Functions Cognition Domain, Change from Baseline to Week 12, Median", "setting": "50 mg, Week 12", "value": 1.0}, {"measurement": "BACS Executive Functions Cognition Domain, Week 12, Mean (SD)", "setting": "50 mg, Week 12", "value": "46.4 (10.55)"}, {"measurement": "BACS Executive Functions Cognition Domain, Week 12, Median", "setting": "50 mg, Week 12", "value": 49.5}, {"measurement": "BACS Verbal Fluency Cognition Domain, Change from Baseline to Week 12, Mean (SD)", "setting": "50 mg, Week 12", "value": "1.5 (5.87)"}, {"measurement": "BACS Verbal Fluency Cognition Domain, Change from Baseline to Week 12, Median", "setting": "50 mg, Week 12", "value": 0.0}, {"measurement": "BACS Verbal Fluency Cognition Domain, Week 12, Mean (SD)", "setting": "50 mg, Week 12", "value": "41.8 (10.41)"}, {"measurement": "BACS Verbal Fluency Cognition Domain, Week 12, Median", "setting": "50 mg, Week 12", "value": 40.0}, {"measurement": "BACS Attention Cognition Domain, Adjusted Change from Baseline to Week 12, LS Mean (SE)", "setting": "50 mg, Week 12, MMRM", "value": "2.3 (1.02)"}, {"measurement": "BACS Attention Cognition Domain, Difference from Placebo for Week 12, LS Mean (SE)", "setting": "50 mg, Week 12, MMRM", "value": "0.4 (1.28)"}, {"measurement": "BACS Executive Functions Cognition Domain, Adjusted Change from Baseline to Week 12, LS Mean (SE)", "setting": "50 mg, Week 12, MMRM", "value": "1.8 (1.09)"}, {"measurement": "BACS Executive Functions Cognition Domain, Difference from Placebo for Week 12, LS Mean (SE)", "setting": "50 mg, Week 12, MMRM", "value": "1.2 (1.36)"}, {"measurement": "BACS Verbal Fluency Cognition Domain, Adjusted Change from Baseline to Week 12, LS Mean (SE)", "setting": "50 mg, Week 12, MMRM", "value": "1.2 (0.85)"}, {"measurement": "BACS Verbal Fluency Cognition Domain, Difference from Placebo for Week 12, LS Mean (SE)", "setting": "50 mg, Week 12, MMRM", "value": "0.2 (1.07)"}, {"measurement": "BACS Verbal Memory Cognition Domain, Difference from Placebo for Week 6, LS Mean (SE)", "setting": "125 mg once daily, MMRM, one-sided unadjusted p 0.025, preliminary analysis", "value": "2.5 (1.29)"}, {"measurement": "BACS Composite Score, Difference from Placebo for Week 6, LS Mean (SE)", "setting": "125 mg once daily, MMRM, one-sided unadjusted p 0.038, preliminary analysis", "value": "1.8 (1.02)"}, {"measurement": "BACS Motor Speed Cognition Domain, Difference from Placebo for Week 12, LS Mean (SE)", "setting": "125 mg once daily, MMRM, one-sided unadjusted p 0.067, preliminary analysis", "value": "1.8 (1.18)"}, {"measurement": "BACS Composite Score, Difference from Placebo for Week 12, LS Mean (SE)", "setting": "125 mg once daily, MMRM, one-sided unadjusted p 0.095, preliminary analysis", "value": "1.5 (1.16)"}, {"measurement": "BACS Verbal Memory Cognition Domain, Difference from Placebo for Week 12, LS Mean (SE)", "setting": "125 mg once daily, MMRM, one-sided unadjusted p 0.164, preliminary analysis", "value": "1.4 (1.44)"}, {"measurement": "BACS Working Memory Cognition Domain, Difference from Placebo for Week 6, LS Mean (SE)", "setting": "125 mg once daily, MMRM, one-sided unadjusted p 0.239, preliminary analysis", "value": "0.8 (1.16)"}, {"measurement": "BACS Working Memory Cognition Domain, Difference from Placebo for Week 12, LS Mean (SE)", "setting": "125 mg once daily, MMRM, one-sided unadjusted p 0.406, preliminary analysis", "value": "0.3 (1.35)"}, {"measurement": "BACS Motor Speed Cognition Domain, Difference from Placebo for Week 6, LS Mean (SE)", "setting": "125 mg once daily, MMRM, one-sided unadjusted p 0.753, preliminary analysis", "value": "−0.9 (1.26)"}, {"measurement": "BACS Composite Score, Adjusted Change from Baseline to Week 6, LS Mean (SE)", "setting": "[1]", "value": "1.4 (0.80)"}, {"measurement": "BACS Composite Score, Adjusted Change from Baseline to Week 12, LS Mean (SE)", "setting": "[1]", "value": "2.3 (0.91)"}, {"measurement": "BACS Motor Speed Cognition Domain, Adjusted Change from Baseline to Week 6, LS Mean (SE)", "setting": "[1]", "value": "−1.0 (0.98)"}, {"measurement": "BACS Motor Speed Cognition Domain, Adjusted Change from Baseline to Week 12, LS Mean (SE)", "setting": "[1]", "value": "1.3 (0.93)"}, {"measurement": "BACS Verbal Memory Cognition Domain, Adjusted Change from Baseline to Week 6, LS Mean (SE)", "setting": "[1]", "value": "1.2 (1.01)"}, {"measurement": "BACS Verbal Memory Cognition Domain, Adjusted Change from Baseline to Week 12, LS Mean (SE)", "setting": "[1]", "value": "0.8 (1.13)"}, {"measurement": "BACS Working Memory Cognition Domain, Adjusted Change from Baseline to Week 6, LS Mean (SE)", "setting": "[1]", "value": "0.9 (0.90)"}, {"measurement": "BACS Working Memory Cognition Domain, Adjusted Change from Baseline to Week 12, LS Mean (SE)", "setting": "[1]", "value": "1.0 (1.06)"}, {"measurement": "BACS Composite Score, Change from Baseline to Week 6, Mean (SD)", "setting": "[2]", "value": "1.9 (4.95)"}, {"measurement": "BACS Composite Score, Change from Baseline to Week 6, Median", "setting": "[2]", "value": 2.0}, {"measurement": "BACS Composite Score, Change from Baseline to Week 12, Mean (SD)", "setting": "[2]", "value": "2.9 (6.54)"}, {"measurement": "BACS Composite Score, Change from Baseline to Week 12, Median", "setting": "[2]", "value": 3.5}, {"measurement": "BACS Composite Score, Week 6, Mean (SD)", "setting": "[2]", "value": "35.6 (14.55)"}, {"measurement": "BACS Composite Score, Week 6, Median", "setting": "[2]", "value": 37.0}, {"measurement": "BACS Composite Score, Week 12, Mean (SD)", "setting": "[2]", "value": "37.1 (15.02)"}, {"measurement": "BACS Composite Score, Week 12, Median", "setting": "[2]", "value": 38.5}, {"measurement": "BACS Motor Speed Cognition Domain, Change from Baseline to Week 6, Mean (SD)", "setting": "[2]", "value": "0.0 (5.97)"}, {"measurement": "BACS Motor Speed Cognition Domain, Change from Baseline to Week 6, Median", "setting": "[2]", "value": 0.5}, {"measurement": "BACS Motor Speed Cognition Domain, Change from Baseline to Week 12, Mean (SD)", "setting": "[2]", "value": "2.5 (7.60)"}, {"measurement": "BACS Motor Speed Cognition Domain, Change from Baseline to Week 12, Median", "setting": "[2]", "value": 2.0}, {"measurement": "BACS Motor Speed Cognition Domain, Week 6, Mean (SD)", "setting": "[2]", "value": "39.6 (10.80)"}, {"measurement": "BACS Motor Speed Cognition Domain, Week 6, Median", "setting": "[2]", "value": 39.0}, {"measurement": "BACS Motor Speed Cognition Domain, Week 12, Mean (SD)", "setting": "[2]", "value": "42.6 (10.35)"}, {"measurement": "BACS Motor Speed Cognition Domain, Week 12, Median", "setting": "[2]", "value": 42.0}, {"measurement": "BACS Verbal Memory Cognition Domain, Change from Baseline to Week 6, Mean (SD)", "setting": "[2]", "value": "1.8 (7.71)"}, {"measurement": "BACS Verbal Memory Cognition Domain, Change from Baseline to Week 6, Median", "setting": "[2]", "value": 2.5}, {"measurement": "BACS Verbal Memory Cognition Domain, Change from Baseline to Week 12, Mean (SD)", "setting": "[2]", "value": "1.6 (8.07)"}, {"measurement": "BACS Verbal Memory Cognition Domain, Change from Baseline to Week 12, Median", "setting": "[2]", "value": 1.0}, {"measurement": "BACS Verbal Memory Cognition Domain, Week 6, Mean (SD)", "setting": "[2]", "value": "42.4 (12.62)"}, {"measurement": "BACS Verbal Memory Cognition Domain, Week 6, Median", "setting": "[2]", "value": 42.0}, {"measurement": "BACS Verbal Memory Cognition Domain, Week 12, Mean (SD)", "setting": "[2]", "value": "42.3 (13.54)"}, {"measurement": "BACS Verbal Memory Cognition Domain, Week 12, Median", "setting": "[2]", "value": 42.5}, {"measurement": "BACS Working Memory Cognition Domain, Change from Baseline to Week 6, Mean (SD)", "setting": "[2]", "value": "1.5 (5.89)"}]}
